The text below walks through data of PMC3335879, “Selective Inhibitors of Protozoan Protein N-myristoyltransferases as Starting Points for Tropical Disease Medicinal Chemistry Programs” (PLoS Neglected Tropical Diseases, 2012).

Read-outs that look alike come from different tables or passages of the source. A value given as a limit tells only on which side of the number the result lay.

In one test the target is T1, T brucei NMT (Trypanosoma brucei brucei, UniProt Q388H8).
T1 construct: made in house
T1 sequence (Q388H8 1-446): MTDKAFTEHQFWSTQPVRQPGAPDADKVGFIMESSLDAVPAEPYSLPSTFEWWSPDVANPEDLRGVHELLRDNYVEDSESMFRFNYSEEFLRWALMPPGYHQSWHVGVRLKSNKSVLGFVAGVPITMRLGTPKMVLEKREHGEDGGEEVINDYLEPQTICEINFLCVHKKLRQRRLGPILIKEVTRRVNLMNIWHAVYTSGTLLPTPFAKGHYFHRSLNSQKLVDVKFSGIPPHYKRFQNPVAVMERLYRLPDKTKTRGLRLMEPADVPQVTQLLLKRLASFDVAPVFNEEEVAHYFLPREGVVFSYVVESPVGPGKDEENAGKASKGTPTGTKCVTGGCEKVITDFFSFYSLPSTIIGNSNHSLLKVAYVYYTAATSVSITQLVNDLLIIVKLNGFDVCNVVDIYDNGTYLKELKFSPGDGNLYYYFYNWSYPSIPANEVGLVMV
Nature of the test: T. brucei NMT scintillation proximity dose-response assay. Format: biochemical. In general terms: Scintillation proximity formats need no separation of bound from free tracer.

Another test deals with L. donovani NMT (Leishmania donovani, UniProt D0AB09). Nature of the test: biochemical. The conditions noted are these: for Ldon LE: ligand efficiency calculated from Ldon NMT IC50. How it is done:
Recombinant P. falciparum (Swiss-Prot Q81LW6) and L. donovani NMTs (EMBL accession number FN555136) were produced at the University of York, using established protocols. An assay format based on scintillation proximity technology to monitor enzyme activity was used as previously described, [30].
The Pfizer Global Diverse Representative Set consisting of 150,000 compounds was screened at 20 µM final assay concentration. Assay plates were prepared by dispensing 0.1 µL of compound dissolved in DMSO using the Vario system (Cybio) into white 384-well plates (Greiner Bio-One).
(§1) The reaction was initiated by adding 10 µL of the substrate mixture to each well containing the pre-incubated enzyme/compound mixture, and allowed to proceed at RT for 80 min. The reaction was quenched by the addition 20 µl of stop solution to each well. Stop solution consisted of 0.75 M MgCl2 (Sigma), 0.1 M phosphoric acid (Sigma) and 1 mg/ml of streptavidin-coated polystyrene SPA beads (Perkin-Elmer). Plates were sealed using topseals (Perkin-Elmer) and left overnight to allow the bead solution to settle. Radioactive counts were measured with an integration time of 300 sec per plate using the Leadseeker Generation 4 plate reader (GE Healthcare). Each plate included a positive control of 1 µM final assay concentration of DDD85646 [22] and 1% DMSO as a negative control. […] The data were analysed using Pfizer SIGHTS software and visualised using Spotfire software (TIBCO).

Another test addresses T2, P. falciparum NMT (Plasmodium falciparum, UniProt Q8ILW6).
T2 construct: made in house
T2 sequence (Q8ILW6 1-410): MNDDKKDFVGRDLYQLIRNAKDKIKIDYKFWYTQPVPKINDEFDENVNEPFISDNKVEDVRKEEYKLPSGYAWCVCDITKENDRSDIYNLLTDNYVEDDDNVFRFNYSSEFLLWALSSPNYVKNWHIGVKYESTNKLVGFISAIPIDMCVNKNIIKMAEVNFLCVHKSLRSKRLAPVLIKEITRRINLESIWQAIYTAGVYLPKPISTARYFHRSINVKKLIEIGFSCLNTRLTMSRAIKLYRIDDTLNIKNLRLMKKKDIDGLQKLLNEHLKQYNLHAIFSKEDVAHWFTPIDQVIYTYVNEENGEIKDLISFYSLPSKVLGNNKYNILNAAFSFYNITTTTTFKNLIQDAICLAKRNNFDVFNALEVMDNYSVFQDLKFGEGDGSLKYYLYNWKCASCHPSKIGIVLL
The test can be described thus: biochemical. The conditions noted are these: for Pfal LE: ligand efficiency calculated from Pfal NMT IC50; for Pfal/Ldon Sel: selectivity for Pfal NMT over Ldon NMT derived from IC50 values. How it is done:
Recombinant P. falciparum (Swiss-Prot Q81LW6) and L. donovani NMTs (EMBL accession number FN555136) were produced at the University of York, using established protocols. An assay format based on scintillation proximity technology to monitor enzyme activity was used as previously described, [30]. […]
as §1

Another test concerns the target T3, HsNMT2 (Homo sapiens, UniProt O60551).
T3 construct: made in house
T3 sequence (O60551 1-498): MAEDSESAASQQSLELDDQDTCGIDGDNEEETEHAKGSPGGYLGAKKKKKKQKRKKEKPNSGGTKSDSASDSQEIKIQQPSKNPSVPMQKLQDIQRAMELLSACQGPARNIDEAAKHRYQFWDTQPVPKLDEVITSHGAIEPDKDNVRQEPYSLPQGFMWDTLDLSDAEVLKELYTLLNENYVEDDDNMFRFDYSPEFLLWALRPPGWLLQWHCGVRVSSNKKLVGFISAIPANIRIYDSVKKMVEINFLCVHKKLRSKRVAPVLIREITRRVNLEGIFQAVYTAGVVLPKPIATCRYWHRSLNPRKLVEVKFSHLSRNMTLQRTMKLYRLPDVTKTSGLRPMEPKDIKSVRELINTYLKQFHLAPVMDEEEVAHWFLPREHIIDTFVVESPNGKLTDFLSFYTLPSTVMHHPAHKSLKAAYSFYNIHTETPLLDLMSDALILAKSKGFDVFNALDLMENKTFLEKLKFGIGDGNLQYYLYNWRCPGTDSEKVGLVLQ
The test can be described thus: Human NMT2 scintillation proximity dose-response assay. Format: biochemical. Particulars: Table 2; single determination; read-out: Hs2 IC50.

The next test concerns the target T4, HsNMT1 (Homo sapiens, UniProt P30419).
T4 construct: made in house
T4 sequence (P30419 1-496): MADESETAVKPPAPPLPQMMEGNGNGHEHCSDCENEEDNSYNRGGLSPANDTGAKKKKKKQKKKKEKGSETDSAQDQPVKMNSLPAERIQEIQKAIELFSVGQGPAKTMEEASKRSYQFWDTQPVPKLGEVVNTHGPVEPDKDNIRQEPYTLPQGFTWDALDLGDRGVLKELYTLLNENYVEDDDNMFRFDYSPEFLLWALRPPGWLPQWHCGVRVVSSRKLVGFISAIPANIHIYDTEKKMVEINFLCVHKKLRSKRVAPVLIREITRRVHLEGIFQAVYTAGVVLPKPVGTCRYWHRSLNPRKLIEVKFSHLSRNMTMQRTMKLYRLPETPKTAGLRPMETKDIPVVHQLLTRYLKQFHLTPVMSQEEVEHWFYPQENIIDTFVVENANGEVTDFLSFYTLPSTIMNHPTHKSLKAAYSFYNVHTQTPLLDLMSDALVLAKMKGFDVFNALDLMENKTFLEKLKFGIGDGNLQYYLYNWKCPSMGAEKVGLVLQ
The test can be described thus: Human NMT1 scintillation proximity dose-response assay. Format: biochemical. Particulars: Table 2; single determination; read-out: Hs1 IC50.

Where [1] appears, read: Table 2, single determination, read-out: Tb IC50.
[2] abbreviates: Table 1, mean of 3 separate experiments, top concentration 80 µM, read-out: Ldon IC50.
The mark [3] stands for this setting: Table 2, mean of 3 determinations, read-out: Ldon IC50.
Where [4] appears, read: Table 1, mean of 3 separate experiments, top concentration 80 µM, read-out: Pfal IC50.
Where [5] appears, read: Table 2, mean of 3 determinations, read-out: Pfal IC50.
[6] abbreviates: Ldon IC50, Table 1, mean of 3 separate experiments, top concentration 80 µM.
The mark [7] stands for this setting: Ldon IC50, Table 2, mean of 3 determinations.

L. donovani NMT, sequence (D0AB09 entry or part of it): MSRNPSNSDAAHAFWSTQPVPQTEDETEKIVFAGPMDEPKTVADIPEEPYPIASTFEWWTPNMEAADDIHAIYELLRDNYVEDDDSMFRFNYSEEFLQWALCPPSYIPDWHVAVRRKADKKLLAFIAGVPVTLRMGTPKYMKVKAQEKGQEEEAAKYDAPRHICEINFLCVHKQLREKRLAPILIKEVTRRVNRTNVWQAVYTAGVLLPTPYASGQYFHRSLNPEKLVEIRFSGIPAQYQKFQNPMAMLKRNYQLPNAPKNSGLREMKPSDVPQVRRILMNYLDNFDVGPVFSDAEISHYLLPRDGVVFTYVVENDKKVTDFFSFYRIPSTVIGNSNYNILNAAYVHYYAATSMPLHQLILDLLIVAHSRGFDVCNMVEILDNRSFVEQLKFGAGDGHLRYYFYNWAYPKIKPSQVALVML

Turning to `CNCC(=O)N1CC[C@@H](NC(=O)c2ccccc2C(F)(F)F)C1` [CP-854190], the concentration for half-maximal inhibition (IC50) – broadly, the concentration that gives 50% inhibition – on T brucei NMT (setting [1]) is over 80 µM; at L. donovani NMT (setting [2]) it was 38.7 µM; on L. donovani NMT (setting [3]), 38.7 µM; on P. falciparum NMT (setting [4]), 1.72 µM; at P. falciparum NMT (setting [5]) it was 1.72 µM; at HsNMT2, 1.59 µM. Also, the 50% inhibitory concentration (IC50) on HsNMT1 came out at 0.57 µM. The “Pfal LE” value on P. falciparum NMT is 0.34. Further, the “Pfal/Ldon Sel” value at P. falciparum NMT is 22.5.
For the compound `c1cncc(CCNCc2cccc(-c3cccc(CN4CCc5ncsc5C4)c3)c2)c1` [PF-00075634], the IC50 on T brucei NMT (setting [1]) is over 80 µM; at L. donovani NMT (setting [2]), 0.158 µM; on L. donovani NMT (setting [3]), 0.16 µM; at P. falciparum NMT (setting [4]), over 80 µM; at P. falciparum NMT (setting [5]) it was over 80 µM; on HsNMT2, 26.7 µM. Also, at HsNMT1, the IC50 worked out at 36.1 µM. Besides, the “Ldon LE” value on L. donovani NMT was 0.29.
Turning to `Cc1cc2nc(N(C)C3CCN(C)CC3)nc(N(C)CCC#N)c2s1` [PF-00349412], the concentration for half-maximal inhibition (IC50) against T brucei NMT was determined as 56.2 µM; at L. donovani NMT (setting [6]) it was 0.482 µM; against L. donovani NMT (setting [7]) it was 0.48 µM; on P. falciparum NMT, 39.6 µM; on HsNMT2, 11.5 µM; on HsNMT1 it was 9 µM. The “Ldon LE” value at L. donovani NMT is given as 0.34.
Consider `NC(CC(=O)N1CC(CO)C(c2ccc(Cl)cc2)C1)Cc1ccc(Cl)cc1` (centres unmarked) [PF-03402623], for which the half-inhibitory concentration (IC50) on T brucei NMT (setting [1]) turned out to be 1.5 µM; on L. donovani NMT (setting [2]) it was 0.093 µM; at L. donovani NMT (setting [3]) it was 0.093 µM; on P. falciparum NMT (setting [4]), 71.9 µM; on P. falciparum NMT (setting [5]), 71.9 µM; at HsNMT2, 14.7 µM. Further, the IC50 at HsNMT1 is 5.2 µM. In addition, at L. donovani NMT, the “Ldon LE” value is reported as 0.35.
For the compound `Cc1cnc(CNC(=O)C2CN(c3nc(NCCN(C)C)ncc3Cl)C2)cn1` [PF-03531814], the IC50 at T brucei NMT (setting [1]) was over 80 µM; on L. donovani NMT (setting [2]), 72 µM; on L. donovani NMT (setting [3]), 72 µM; on P. falciparum NMT (setting [4]), 0.482 µM; on P. falciparum NMT (setting [5]), 0.48 µM; at HsNMT2 it was 76 µM. The IC50 on HsNMT1 was 70 µM. For the same compound, the “Pfal LE” value on P. falciparum NMT was 0.31. Also, the “Pfal/Ldon Sel” value at P. falciparum NMT is 150.
With `Cn1c(CN2CCC(c3cc(F)cc(F)c3)CC2)nc2cc(Cl)ccc21` [PF-03665853], the IC50 at T brucei NMT (setting [1]) was 35.4 µM; against L. donovani NMT (setting [6]), over 80 µM; against L. donovani NMT (setting [7]), over 80 µM; on P. falciparum NMT (setting [4]), 0.91 µM; at P. falciparum NMT (setting [5]), 0.91 µM; at HsNMT2, 0.56 µM. The IC50 on HsNMT1 worked out at 0.51 µM. In addition, at P. falciparum NMT, the “Pfal LE” value was 0.32. Also, the “Pfal/Ldon Sel” value on P. falciparum NMT is over 88.
